From paper PMC8066426 (iScience, 2021)
Each block holds one compound with its values, some of them ahead of it.

Key:
[1] = biological target: T1, CorC (TpCorC) (Thermus parvatiensis, UniProt A0A109QFA5); experiment: competitive displacement of mant-ATP; format: binding
T1 sequence (A0A109QFA5 207-348): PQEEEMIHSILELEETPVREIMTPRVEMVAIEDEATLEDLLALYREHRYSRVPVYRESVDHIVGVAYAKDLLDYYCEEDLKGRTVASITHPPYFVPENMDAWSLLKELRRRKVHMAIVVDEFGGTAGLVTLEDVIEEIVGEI

[2] = biological target: ATP-binding site mutant of the TpCorC cross-linking construct (T106C/C282A/Y255A/T336I) (Thermus parvatiensis); experiment: cross-linking
[3] = biological target: T1, CorC (TpCorC); experiment: FRET from endogenous Trp to bound mant fluorophore, saturation binding
[4] = biological target: TpCorC inter-subunit cross-linking mutant (T106C/C282A) (Thermus parvatiensis); experiment: cross-linking

- IC50 [1]: 570 ± 80 nM
Compound: Nc1ncnc2c1ncn2[C@@H]1O[C@H](COP(=O)(O)OP(=O)(O)OP(=O)(O)O)[C@@H](O)[C@H]1O [ATP]

- stoichiometry N [2]: 2
Compound: ATP-binding site mutant of the TpCorC cross-linking construct (T106C/C282A/Y255A/T336I) (natural protein)

- Kd [3]: 1360 ± 100 nM
Compound: CNc1ccccc1C(=O)O[C@H]1[C@@H](O)[C@H](n2cnc3c(N)ncnc32)O[C@@H]1CO[P@@](=O)(O)O[P@](=O)(O)OP(=O)(O)O [mant-ATP, 2′(3′)-O-(N-methylanthraniloyl)adenosine 5′-triphosphate]

- stoichiometry N [4]: 2
Compound: TpCorC inter-subunit cross-linking mutant (T106C/C282A) (natural protein)
